Key:
Format in all cases: cell-based, human
[1] = system: TLR4-mediated signaling in FHC enterocytes; experiment: Western blot of TLR4-mediated signaling in LPS-treated enterocytes
[2] = system: TLR4-mediated signaling in FHC enterocytes; experiment: qRT-PCR of IL-6 and COX-2 mRNA in LPS-treated enterocytes
FHC cells = experiment: In vitro enterocyte migration (scratch wound); details: Ys49 2 and 5 μM with peptide 40 μM for 1 h, then LPS
Procedure: Cells were expected to reach a 100% confluence on the day of the experiment. Monolayers were scratched by a sterile pipette tip and washed for three times with pre-warmed 1 × PBS. The wounded monolayer of FHC or IEC-6 cells was imaged at indicated time using a microscope (Zeiss, Germany). The relative migration index of the cells was measured according to the area of the wound edge by Image J software (NIH Image, USA).

[3] = system: p65 subunit of NF-κB in FHC cells; experiment: Immunofluorescence staining of NF-κB p65 nuclear translocation; details: Ys49 2 and 5 μM with peptide 40 μM for 1 h, then LPS
Procedure: FHC cells were fixed, washed and blocked, and then incubated with the following primary antibodies: anti-NF-κB p65 (Cell Signaling Technology, USA) and […]. The Alexa Fluor® 488-labeled goat anti-rabbit secondary antibody was used (Cell Signaling Technology, USA). FHC cells were counterstained with DAPI (Sigma-Aldrich, USA) and visualized using a fluorescence microscope (Zeiss, Germany).

[4] = system: PI3K/AKT pathway in FHC enterocytes; experiment: Western blot of PI3K and AKT phosphorylation; details: Ys49 2 and 5 μM with ^Tat(48–60) YVEEL 40 μM for 1 h, then LPS
Procedure: Cell pellets or intestinal tissues were lysed with RIPA buffer (Beyotime, China) for 20 min on ice and lysates were collected by centrifugation (13000 × g, 20 min at 4°C). Protein concentrations were quantified using the BCA Protein Assay (Thermo Fisher Scientific, USA) and equal amounts (20 μg) of protein lysates from each sample were separated by SDS-PAGE. Separated proteins were then transferred to PVDF membranes (Millipore, USA). Membranes were blocked with 5% skim milk or BSA and then incubated with the following primary antibodies: anti-TLR4 (Abcam, USA), anti-p-IκBα (Abcam, USA), anti-IκBα (Abcam, USA), anti-p-PI3K (Cell Signaling Technology, USA), anti-p-AKT (Cell Signaling Technology, USA), anti-PI3K (Cell Signaling Technology, USA), anti-AKT (Cell Signaling Technology, USA), anti-β-actin (Abcam, USA). Membranes were then incubated with species-matched HRP-conjugated secondary antibodies (Biosharp, China). Protein expressions were visualized using Immobilon® Western Chemiluminescent HRP Substrate (Millipore, USA) in accordance with the manufacturer’s protocol.

[5] = Ys49 2 and 5 μM with ^Tat(48–60) YVEEL 40 μM for 1 h, then LPS
[6] = LY294002 10 μM in the absence or presence of ^Tat(48–60) YVEEL 40 μM, LPS

Row | SMILES | effect on ^Tat(48–60) YVEEL-induced reduction of TLR4 expression [1, 5] | effect on ^Tat(48–60) YVEEL-induced reduction of p-IκBα expression [1, 5] | effect on protective effect of ^Tat(48–60) YVEEL on TLR4-mediated induction of pro-inflammatory cytokines (IL-6, COX-2 mRNA) [2, 5] | effect on protective effect of ^Tat(48–60) YVEEL on enterocyte migration (FHC cells) | effect on blockage of TLR4-mediated cytoplasm-nucleus translocation of p65 by the peptide [3] | effect on inhibitory effects of ^Tat(48–60) YVEEL on PI3K/AKT pathway [4] | TLR4 protein expression, inhibition in the presence of ^Tat(48–60) YVEEL ([1]; LY294002 10 μM plus ^Tat(48–60) YVEEL 40 μM, LPS) | TLR4 protein expression ([1]; LY294002 10 μM, LPS) | TLR4-induced mRNA expression of COX-2 [2, 6] | TLR4-induced mRNA expression of IL-6 [2, 6]
1 | Oc1cc2c(cc1O)C(Cc1cccc3ccccc13)NCC2 (stereo not shown) [Ys49] | notably reversed | notably reversed | reversed | attenuated | attenuated | significantly abolished | – | – | – | –
2 | O=c1cc(N2CCOCC2)oc2c(-c3ccccc3)cccc12 [LY294002] | – | – | – | – | – | – | more significant | could inhibit | reduced | reduced

Source: paper PMC9590307, “Peptide ^Tat(48–60) YVEEL protects against necrotizing enterocolitis through inhibition of toll-like receptor 4-mediated signaling in a phosphatidylinositol 3-kinase/AKT dependent manner” (Frontiers in Nutrition, 2022)
